Test system: 3T3-L1 preadipocytes
Experiment: In-vitro lipid-lowering (adipocyte-degrading) activity analysis, MTT detection
Format: cell-based
Settings: for adipocyte lysis activity vs. negative control (Control, PBS): FIG. 2 mark a
Experimental: Preadipocytes: induced preadipocytes stage; D0-D2: 0-2nd day of induced differentiation (an early stage of differentiation); D9: the 9th day of induced differentiation (a mature adipocyte stage).
1.2 In-Vitro Lipid-Lowering Activity Analysis of the Leptin Active Peptide
Lipid degradation activity of the synthesized leptin active peptide having helix D region mutation is analyzed on a cellular level by taking a 3T3-L1 preadipocyte line as a model. Specific operations are as follows:
b: an early differentiation stage D0-D2 (0-2nd day of induced differentiation); and
c: a mature adipocyte stage D9 (the 9th day of induced differentiation);
a. leptin active peptide having helix D region mutation (PEP-D): diluted to […] with purified water and preserved at −20° C. for later use. After an experiment is started, working concentrations have 3 concentration gradients, that is, 10^−6M, 10^−9M and 10^−11M;
b. positive control. I: H-LEP, recombinant human-derived leptin protein (10221-HNAE, Beijing Sino Biological Inc.), diluted to 10^−6M with purified water and preserved at −20° C. for later use. After an experiment is started, the working concentration is 10^−9M;
c. positive control 2: Ros (rosiglitazone,R2408,Sigma), diluted to a stock solution with a concentration of 2518 μM with DMSO and preserved at −20° C. for later use. After an experiment is started, the stock solution is diluted to a working solution of 0.5 μM with cell culture fluid;
d. negative control (Control): equivalent quantity of PBS
(1) Inoculating 3T3-L1 preadipocytes in corning cell bind 96-well plates (totally inoculated with 3 plates, respectively plate a, plate b and plate c), wherein the inoculation density is 4500 cells/well; and marking, and standing and culturing at 37° C. in a 5% CO2 incubator. Each sample of each plate is operated repeatedly for 3 times, and the whole experiment is repeated for 3 times;
(2) Continuously culturing for 48 hours after the cells are merged to 100% (enabling the cells to exit from a growth cycle, and starting induced differentiation); and
i, taking out the plate a; respectively adding different amounts of leptin active peptide having helix D region mutation (PEP-D) to enable the working concentrations to be respectively 3 concentration gradients, that is, 10^−6M, 10^−9M and 10^−11M; setting 2 positive controls, a negative control (PBS) and a blank control (3 repeated holes are set for each sample), and continuously standing and culturing at 37° C. in the 5% CO2 incubator.
ii, when culturing to 45 hours (that is, 3 hours before the end of drug treatment), taking out the plate a, and measuring MTT (preadipocytes). Specific operations: adding 20 μL of 5 mg/mL of MTT solution into each well, continuously standing and culturing at 37° C. in the 5% CO2 incubator for 3 hours, sucking and discarding the culture solution in the wells, adding 150 μL of DMSO into each well, horizontally shaking for 10 min, detecting a light absorption value at 492 nm by a microplate reader, and drawing a growth curve;
i, taking out the plate b; adding the differentiation induced liquid I (D0); respectively adding the leptin active peptide having helix D region mutation (PEP-D); setting 2 positive controls, a negative control (PBS) and a blank control (3 repeated holes are set for each sample), and continuously standing and culturing at 37° C. in the 5% CO2 incubator.
ii, when culturing to 45 hours (that is, 3 hours before the end of drug treatment), taking out the plate b, and measuring MTT (at the early differentiation stage, D0-D2). Specific operations: adding 20 μL, of 5 mg/mL of MTT solution into each well; continuously standing and culturing at 37° C. in the 5% CO2 incubator for 3 hours; sucking and discarding the culture solution in the wells; adding 150 μL of DMSO into each well; horizontally shaking for 10 min; detecting a light absorption value at 492 nm by the microplate reader; and drawing a growth curve; […]

[1] = P<0.05, H-LEP 10^−9M, Ros 0.5 μM

Molecule | adipocyte lysis activity vs. negative control (Control, PBS) [1] | adipocyte lysis activity vs. H-LEP (FIG. 2 mark b, P<0.05) | adipocyte lysis activity vs. Ros (FIG. 2 mark c, P<0.05) | adipocyte-degrading activity compared with the positive controls H-LEP and Ros (MTT, three cell differentiation stages (preadipocytes, early differentiation D0-D2, mature adipocyte D9), PEP-D 10^−6M, 10^−9M, 10^−11M, H-LEP 10^−9M, Ros 0.5 μM) | concentration dependence of lipid-lowering activity (MTT, working concentrations 10^−6M, 10^−9M and 10^−11M) | cell lysis effects at cell stages (preadipocytes stage, differentiation stage (D0-D2), mature adipocyte stage (D9))
CN(CCOc1ccc(CC2SC(=O)NC2=O)cc1)c1ccccn1 (stereo not shown) [Ros, rosiglitazone, reference compound] | obviously better than that of the negative control | – | – | – | – | –
STEVVALDGLQGSLQTMLLQLEYS (An amino acid sequence of the leptin active peptide having helix D region mutation) [PEP-D] | – | obviously better than that of the H-LEP | obviously better than that of the Ros | obviously better than that of positive control-human-derived leptin protein (H-LEP) and a commercially available drug rosiglitazone (Ros) | obvious concentration dependence | obvious cell lysis effects at three stages
H-LEP: recombinant human-derived leptin protein (10221-HNAE, Beijing Sino Biological Inc.), positive control | obviously better than that of the negative control | – | – | – | – | –

Reference: patent publication US20180050093A1, “LEPTIN ACTIVE PEPTIDE HAVING D HELIX REGION MUTATIONS, CODING GENE THEREOF, AND APPLICATION THEREOF” (SUN YAT-SEN UNIVERSITY, priority 2015, published 2018)
